In assay [1] the test system is MM1S cells and RPMI-8226 cells. The experiment in a line: Combination of compound 670 with pomalidomide or lenalidomide, cell survival and combination index. It counts as cell-based. The note with it: 72 hours; cells resistant to pomalidomide or lenalidomide or not; combination index by Calcusyn. As to the method: At the end of the incubation, cell viability was measured using Cell Titer Glo as per manufacturer's protocol (Promega, Madison, Wis.). Measured values for compound-treated cells were normalized to DMSO-treated cells and data is reported as a cell survival ratio with a value of 1 (one) corresponding to maximum cell survival and a value of 0 (zero) corresponding to no cell survival. Cell survival ratios for all compound treatments are represented as bar graphs. Combination indices were calculated using the Calcusyn program (biosoft.com) and reported for individual mixtures of compound 670 and either pomalidomide or lenalidomide. Compound mixtures that produced a synergistic anti-tumor activity are highlighted.

The subject of assay [2] is RPMI-8226 multiple myeloma xenograft. The experiment in a line: Multiple myeloma xenograft study, compound 670 and lenalidomide. Type of assay: in vivo, mice. Conditions: compound 670 200 mg/kg oral BID + lenalidomide 30 mg/kg oral QD, 24 days; P<0.0001 vs vehicle and lenalidomide alone, P<0.01 vs CB-839 alone. As to the method: Female scid/beige mice (n=40) age 7-8 weeks were implanted subcutaneously with 3×10^7 RPMI-8226 multiple myeloma cells per mouse mixed 1:1 with Matrigel. […] Tumors were measured with calipers three times per week and tumor volume calculated using the formula tumor volume (mm^3)=(a×b^2/2) where ‘b’ is the smallest diameter and ‘a’ is the largest perpendicular diameter. ****P-value<0.0001 (One-way ANOVA vs. vehicle and vs. Lenalidomide alone) **P-value<0.01 (One-way ANOVA vs. CB-839 alone).

Assay [3] shares this test system. Briefly: Multiple myeloma xenograft study with CB-839, pomalidomide and combination. Type of assay: in vivo, mice. Conditions: CB-839 200 mg/kg oral BID + pomalidomide 1 mg/kg oral QD; P<0.01. As to the method:
Female scid/beige mice (age 7-9 weeks) were implanted subcutaneously with 1×10^7 RPMI-8226 myeloma cells mixed 1:1 with matrigel. Tumors were measured with calipers three times per week and tumor volume calculated using the formula tumor volume (mm^3)=(a×b^2/2) where ‘b’ is the smallest diameter and ‘a’ is the largest perpendicular diameter.

The test system of another assay is P493-6 (myc "on") cells. The experiment in a line: Cell Proliferation Assay, P493-6 cells, 72 hrs. Type of assay: cell-based. As to the method:
For compound assay, P493-6 cells were plated in 96-well V-bottom plates on the day of compound addition in 50 μl of growth media at a cell density of 200,000 cells/ml (10,000 cells/well). Compounds were serially diluted in 100% DMSO at 200-times the final concentration. Compounds were diluted 100-fold into growth media and then 50 μl of this mixture was added to cell plates making the final concentration of DMSO 0.5%. Cells were incubated with compound for 72 hrs at 37° C. with 5% CO2 and analyzed for antiproliferative effects either by Cell Titer Glo (Promega) or FACS analysis using the Viacount (Millipore) kit on the Guava instrument.

Assay [4] concerns the target T1, recombinant form of Glutaminase 1 (GAC) (Homo sapiens, UniProt O94925).
T1 sequence (O94925 137-598 isoform O94925-3 limits assumed): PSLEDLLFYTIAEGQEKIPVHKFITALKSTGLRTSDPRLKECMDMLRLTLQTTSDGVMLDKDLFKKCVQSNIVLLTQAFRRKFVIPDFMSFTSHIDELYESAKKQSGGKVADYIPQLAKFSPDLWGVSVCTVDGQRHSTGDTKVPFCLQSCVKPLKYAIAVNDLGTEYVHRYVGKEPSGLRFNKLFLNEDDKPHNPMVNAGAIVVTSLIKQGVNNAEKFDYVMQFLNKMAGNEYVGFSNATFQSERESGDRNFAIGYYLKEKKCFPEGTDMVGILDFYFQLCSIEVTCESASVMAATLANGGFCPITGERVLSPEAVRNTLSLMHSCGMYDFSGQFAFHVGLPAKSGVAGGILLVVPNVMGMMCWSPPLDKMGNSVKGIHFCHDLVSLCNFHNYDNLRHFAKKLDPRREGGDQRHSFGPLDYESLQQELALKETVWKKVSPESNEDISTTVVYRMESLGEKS
The experiment in a line: Recombinant Enzyme Assay - Time Dependence (60 min preincubation). Type of assay: biochemical. As to the method:
The enzyme/compound mix was sealed with sealing foil (USA Scientific) and allowed to incubate, with mild agitation, for 60 minutes at 20° C. Enzymatic reaction was started with the addition of 50 μL of substrate solution (50 mM Tris-HCl pH 8.0, 0.2 mM EDTA, 150 mM K2HPO4, 0.1 mg/ml BSA, 1 mM DTT, 20 mM L-glutamine, 2 mM NAD^+, and 10 ppm antifoam) and read in a Molecular Devices M5 plate reader at 20° C. The plate reader was configured to read absorbance (λ=340 nm) in kinetic mode for 15 minutes. Data was recorded as milli-absorbance units per minute and slopes were compared to a control compound and a DMSO-only control on the same plate. Compounds with slopes less than the DMSO control were considered inhibitors and plate variability was assessed using the control compound.

For another assay, the system named is RPMI-8226 cells. Briefly: Anti-proliferative activity in multiple myeloma cell line RPMI-8226 (Cell Titer Glo, 72 hrs). Type of assay: cell-based. As to the method:
Multiple myeloma cell lines RPMI-8226 and MM1S were seeded in 96-well plates at a density of 10,000 cells/well. […] Cells were incubated for 72 hrs at 37° C. with 5% CO2 and analyzed for antiproliferative effects by Cell Titer Glo (Promega). Cell proliferation (% of DMSO control) was determined by comparing the Cell Titer Glo signal (rfu) of compound 670-, lenalidomide-, or pomalidomide-treated cells versus DMSO treated cells. Cell viability (% DMSO of control) was plotted against compound concentration and resulting curves were fit using a four-parameter dose response to determine IC50 values.
(In general: In ATP-based viability assays light output follows the ATP content of the culture.)

The target in assay [5] is T1, recombinant form of Glutaminase 1 (GAC). Briefly: Recombinant Enzyme Assay (no preincubation). Conditions: read-out: GAC Delta N2 IC50 no preinc. It counts as biochemical.
Experimental: Compounds were assessed for their ability to inhibit the enzymatic activity of a recombinant form of Glutaminase 1 (GAC) using a biochemical assay that couples the production of glutamate (liberated by GAC) to glutamate dehydrogenase (GDH) and measuring the change in absorbance for the reduction of NAD^+ to NADH. […] Enzymatic reaction was started with the addition of 50 μL of enzyme solution (50 mM Tris-HCl pH 8.0, 0.2 mM EDTA, 150 mM K2HPO4, 0.1 mg/ml BSA, 1 mM DTT, 10 ppm antifoam, 4 units/ml GDH, 4 mM adenosine diphosphate, and 4 nM GAC) and read in a Molecular Devices M5 plate reader at 20° C. The plate reader was configured to read absorbance (λ=340 nm) in kinetic mode for 15 minutes. Data was recorded as milli-absorbance units per minute and slopes were compared to a control compound and a DMSO-only control on the same plate. Compounds with slopes less than the DMSO control were considered inhibitors and plate variability was assessed using the control compound.
The mark [6] stands for this setting: P493-6, 72 h, read-out: Cell prolif P493 72h IC50, P493 cells, 72h.

Structures are written as SMILES. Like-named read-outs stand apart in the source and are kept apart here.

As to `O=C(Cc1cccc(OC(F)(F)F)c1)Nc1ccc(CCCCc2nnc(NC(=O)Cc3ccccn3)s2)nn1` [compound 670], in assay [1], the “combination effect with lenalidomide in multiple myeloma cells” value is on record as “synergizes” and the “combination effect with pomalidomide in multiple myeloma cells” value is “synergizes”. Besides, the “reduction in tumor size, combination with lenalidomide vs either agent alone” value in assay [2] was “greater reduction in tumor size”. Besides, the “reduction in tumor size, combination with pomalidomide vs either agent alone” value in assay [3] is reported as “greater reduction in tumor size”. Besides, in the assay on P493-6 (myc "on") cells (read-out: Cell prolif P493 72h IC50, P493 cells, 72h), the IC50 was found to be 30 nM.

As for `O=C(COC(C(=O)Nc1nnc(CCCCc2nnc(NC(=O)C(COC(=O)C3CCN(C(=O)OCc4ccccc4)CC3)c3ccccc3)s2)s1)c1ccccc1)C1CCN(C(=O)OCc2ccccc2)CC1` (centres unmarked) [compound 301], the IC50 in the assay on P493-6 (myc "on") cells (setting [6]) worked out at 230 nM.

For `COC(=O)NCC1=CC(CC(=O)Nc2ccc(CCCCc3nnc(NC(=O)Cc4cccc(CNC(=O)OC)c4)s3)nn2)=CCC1` [compound 573], the results for the IC50 (in assay [4]; in the assay on P493-6 (myc "on") cells (setting [6])) were 4 nM and 15 nM, respectively.

As for `Nc1cccc2c1C(=O)N(C1CCC(=O)NC1=O)C2=O` (centres unmarked) [pomalidomide], the “sensitivity of RPMI-8226 myeloma cells to the agent” value in the assay on RPMI-8226 cells is listed as “resistant”.

As to `C=C(C(=O)Nc1nnc(CCCCc2nnc(NC(=O)C(COC(=O)CCN3CCOCC3)c3ccccc3)s2)s1)c1ccccc1` (centres unmarked) [compound 281], the IC50 in the assay with P493-6 (myc "on") cells (setting [6]) was 660 nM.

As for `O=C(COC(C(=O)Nc1nnc(CCCCc2nnc(NC(=O)C(COC(=O)C3CCNCC3)c3ccccc3)s2)s1)c1ccccc1)C1CCNCC1` (centres unmarked) [compound 302], the IC50 stood at 7000 nM in assay [5] and 870 nM in the assay on P493-6 (myc "on") cells (setting [6]).

Turning to `O=C(Nc1nnc(CCSCCc2nnc(NC(=O)C(c3ccccc3)N3CCNCC3)s2)s1)C(c1ccccc1)N1CCNCC1` (centres unmarked) [compound 79], the IC50 in the assay on P493-6 (myc "on") cells (setting [6]) is 20000 nM.

As for `Nc1cccc2c1CN(C1CCC(=O)NC1=O)C2=O` (centres unmarked) [lenalidomide], in the assay on RPMI-8226 cells, the “sensitivity of RPMI-8226 myeloma cells to the agent” value was “resistant”.

`CCOc1ccc(C(O)C(=O)Nc2nnc(CCCCc3ccc(NC(=O)Cc4ccccc4)nn3)s2)cc1` (centres unmarked) [compound 558]: in the assay on P493-6 (myc "on") cells (setting [6]), the IC50 amounted to 28 nM.

Turning to `O=C(Cc1cccc(F)c1)Nc1nnc(CCCCc2nnc(NC(=O)C[C@@H](O)C(=O)O)s2)s1` [compound 153], the IC50 in assay [5] is 1000 nM; in the assay on P493-6 (myc "on") cells (setting [6]), > 50000 nM.

As to `O=C(OCCCN1CCOCC1)OCN(C(=O)Cc1ccccc1)c1nnc(CCSCCc2nnc(N(COC(=O)OCCCN3CCOCC3)C(=O)Cc3ccccc3)s2)s1` [compound 28], the IC50 with P493-6 (myc "on") cells (setting [6]) was 1000 nM.

As to `O=C(Cc1ccc(Cl)c(CC(F)(F)F)c1)Nc1ccc(CCCCc2nnc(NC(=O)Cc3ccccn3)s2)nn1` [compound 721], the IC50 in the assay with P493-6 (myc "on") cells (P493-6, 72 h, read-out: Cell prolif P493 72h IC50, P493-6 cells, 72 h) stood at 22 nM.

For the molecule `O=C(Nc1nnc(CCCCc2nnc(NC(=O)[C@@H]3CC3c3ccccc3)s2)s1)C1C[C@H]1c1ccccc1` (some centres unmarked) [compound 90], the IC50 in assay [5] was > 20000 nM.

The values are drawn from patent US20150258082A1, “COMBINATION THERAPY WITH GLUTAMINASE INHIBITORS” (priority 2014, published 2015).
